Data: publication PMC11432405, “Development of Novel Alaninamide Derivatives with Anticonvulsant Activity and Favorable Safety Profiles in Animal Models” (International Journal of Molecular Sciences, 2024)
Like-named read-outs stand apart in the source and are kept apart here.

Assays:
6 Hz (44 mA) seizures = test: 6 Hz (44 mA) psychomotor seizure model
[1] = system: Cav1.2 (L-type) (verapamil site); test: radioligand binding Cav1.2 (L-type) verapamil site; conditions: 100 µM, rat cerebral cortex
Procedure: (§1) Binding/functional studies were performed commercially in Cerep Laboratories (Poitiers, France) using testing procedures described elsewhere. The general information is listed in Table S3 in the Supporting Information.
(§2) Table S3. The general information of radioligand binding/functional assays. […]
Ca2+channel (L, verapamil site) (antagonist radioligand) […]
(§3) Assays were performed commercially in Eurofins Cerep SA (Celle l’Evescault, France) and Eurofins
(§4) Panlabs Discovery Services Taiwan, Ltd. (New Taipei City, Taiwan), using procedures describe

[2] = system: Cav1.2 (L-type) (dihydropyridine site); test: radioligand binding Cav1.2 (L-type) dihydropyridine site; conditions: 100 µM, rat cerebral cortex
Procedure: as §1
Table S3. The general information of radioligand binding/functional assays.
Ca2+channel (L, dihydropyridine site) (antagonist radioligand) […]
as §3, §4

[3] = target: T1, Cav1.2 (h) calcium ion channel (Homo sapiens, UniProt Q13936); test: Cav1.2 (h) calcium ion channel cell-based antagonist calcium flux assay
T1 construct: Eurofins Cerep SA / Eurofins Panlabs Discovery Services Taiwan (contract assay)
Procedure: as §1, §2
Cav1.2 (L-type) (h) calcium ion channel cell based antagonist calcium flux assay
as §3, §4

[4] = rotarod test (acute neurological toxicity, motor coordination); format: in vivo; conditions: male, CD-1 (albino Swiss), mouse, in vivo, ip, mice i.p.
Procedure: The protective indexes (PIs) were then calculated as the ratio of TD50 to ED50 (PI = TD50/ED50), providing an assessment of the therapeutic window for each compound.

6 Hz (32 mA) seizures = test: 6 Hz (32 mA) psychomotor seizure model;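 note: adult male albino Swiss CD-1 mice, each used once, with compounds suspended in 1% Tween 80 in water as vehicle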
[5] = system: maximal electroshock (MES) seizures; test: maximal electroshock seizure (MES) test; format: in vivo, mice
Text: Epilepsy is a multifaceted disorder with often unclear etiology, making it challenging to pinpoint a specific receptor or transporter as the definitive target. Consequently, the discovery of ASMs deviates from the traditional drug development pathway, which typically involves designing a new molecule, docking it with a specific biological target, and performing chemical synthesis, followed by in vitro assays. Instead, numerous animal seizure models, which mirror various types of human epileptic seizures, are initially employed in the process of new ASM discovery. This approach has been instrumental in the identification and introduction into clinical practice of all currently used ASMs and continues to be a cornerstone in the preclinical development of new anticonvulsants. The primary justification for prioritizing in vivo screening over in vitro binding and functional studies is the complex and often not fully elucidated mechanisms of action of known ASMs. This approach also facilitates the discovery of compounds with novel, previously undefined pharmacodynamic properties. In light of this, we evaluated all compounds obtained in the current studies using the MES test, which remains one of the most valuable preclinical screening models for tonic-clonic seizures, as well as partial convulsions with or without secondary generalization in humans. This test allows for a comprehensive assessment of the anticonvulsant efficacy of new ASM candidates and is considered highly relevant for predicting their therapeutic efficacy in human epilepsy. The MES test was carried out in mice following the intraperitoneal (i.p.) administration of a screening dose of 100 mg/kg in a group consisting of four animals. The efficacy of the compounds synthesized was evaluated at 0.5 h pretreatment time.
Fresh solutions were prepared daily for each experimentation session.
Each group consisted of six animals.

Na+ channel (site 2) = test: radioligand binding Na+ channel (site 2); conditions: 100 µM, rat cerebral cortex
Procedure: as §1, §2, §3, §4

T1 sequence (Q13936 whole entry): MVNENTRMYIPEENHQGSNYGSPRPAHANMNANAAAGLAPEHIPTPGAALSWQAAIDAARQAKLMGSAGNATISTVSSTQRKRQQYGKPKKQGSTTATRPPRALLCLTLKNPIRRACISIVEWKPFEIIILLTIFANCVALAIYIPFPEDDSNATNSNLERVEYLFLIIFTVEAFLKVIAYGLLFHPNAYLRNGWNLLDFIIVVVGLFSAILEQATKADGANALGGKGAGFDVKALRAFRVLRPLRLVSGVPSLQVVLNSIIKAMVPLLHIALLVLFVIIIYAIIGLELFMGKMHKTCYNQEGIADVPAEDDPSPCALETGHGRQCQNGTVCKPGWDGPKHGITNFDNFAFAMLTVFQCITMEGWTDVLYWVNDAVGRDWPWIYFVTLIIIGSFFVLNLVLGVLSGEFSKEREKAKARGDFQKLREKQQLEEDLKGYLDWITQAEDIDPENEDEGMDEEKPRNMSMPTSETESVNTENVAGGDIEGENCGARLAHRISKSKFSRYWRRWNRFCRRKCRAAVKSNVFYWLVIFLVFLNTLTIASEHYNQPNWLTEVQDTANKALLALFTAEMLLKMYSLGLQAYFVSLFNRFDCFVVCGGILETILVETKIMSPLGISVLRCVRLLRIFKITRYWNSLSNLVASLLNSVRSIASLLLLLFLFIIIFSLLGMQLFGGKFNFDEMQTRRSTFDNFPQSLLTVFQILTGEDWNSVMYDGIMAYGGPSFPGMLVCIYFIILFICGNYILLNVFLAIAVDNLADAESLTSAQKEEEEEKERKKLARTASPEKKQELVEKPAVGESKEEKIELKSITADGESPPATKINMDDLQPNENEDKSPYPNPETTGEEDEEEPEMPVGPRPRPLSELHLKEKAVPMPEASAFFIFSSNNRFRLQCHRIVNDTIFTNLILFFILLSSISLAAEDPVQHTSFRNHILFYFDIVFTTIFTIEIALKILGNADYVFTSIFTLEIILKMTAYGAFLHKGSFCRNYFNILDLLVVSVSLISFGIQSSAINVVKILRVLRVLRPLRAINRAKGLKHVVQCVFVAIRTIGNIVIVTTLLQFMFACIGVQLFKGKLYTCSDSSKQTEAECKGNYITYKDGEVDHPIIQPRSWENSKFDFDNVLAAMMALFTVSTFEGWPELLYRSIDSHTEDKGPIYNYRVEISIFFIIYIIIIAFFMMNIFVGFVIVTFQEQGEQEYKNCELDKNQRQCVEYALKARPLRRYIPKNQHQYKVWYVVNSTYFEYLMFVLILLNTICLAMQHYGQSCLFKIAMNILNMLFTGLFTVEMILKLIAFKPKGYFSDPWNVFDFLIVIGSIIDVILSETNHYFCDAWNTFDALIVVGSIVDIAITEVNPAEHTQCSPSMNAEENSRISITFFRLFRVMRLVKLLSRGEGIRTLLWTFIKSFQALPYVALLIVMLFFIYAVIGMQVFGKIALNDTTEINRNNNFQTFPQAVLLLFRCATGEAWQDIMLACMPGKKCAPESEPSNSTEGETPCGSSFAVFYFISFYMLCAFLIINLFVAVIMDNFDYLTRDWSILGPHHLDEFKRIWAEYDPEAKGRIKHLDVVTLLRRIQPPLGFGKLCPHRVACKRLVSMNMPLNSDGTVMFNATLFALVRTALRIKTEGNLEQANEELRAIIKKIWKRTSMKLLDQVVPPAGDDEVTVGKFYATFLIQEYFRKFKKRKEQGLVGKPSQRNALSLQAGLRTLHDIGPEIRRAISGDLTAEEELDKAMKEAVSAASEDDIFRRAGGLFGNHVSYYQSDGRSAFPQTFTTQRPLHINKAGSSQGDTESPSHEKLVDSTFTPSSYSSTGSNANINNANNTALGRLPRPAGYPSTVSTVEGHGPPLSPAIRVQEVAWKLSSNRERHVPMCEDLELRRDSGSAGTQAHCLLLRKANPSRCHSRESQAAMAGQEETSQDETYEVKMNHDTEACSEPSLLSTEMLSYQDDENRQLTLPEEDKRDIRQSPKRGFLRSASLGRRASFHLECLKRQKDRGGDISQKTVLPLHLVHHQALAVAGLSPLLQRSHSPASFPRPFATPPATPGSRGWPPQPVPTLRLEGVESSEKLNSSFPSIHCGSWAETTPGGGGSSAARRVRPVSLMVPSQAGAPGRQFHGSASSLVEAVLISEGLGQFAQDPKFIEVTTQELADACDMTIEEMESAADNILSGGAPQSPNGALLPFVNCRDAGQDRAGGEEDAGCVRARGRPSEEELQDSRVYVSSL
T1 sequence (Q08289 whole entry partner): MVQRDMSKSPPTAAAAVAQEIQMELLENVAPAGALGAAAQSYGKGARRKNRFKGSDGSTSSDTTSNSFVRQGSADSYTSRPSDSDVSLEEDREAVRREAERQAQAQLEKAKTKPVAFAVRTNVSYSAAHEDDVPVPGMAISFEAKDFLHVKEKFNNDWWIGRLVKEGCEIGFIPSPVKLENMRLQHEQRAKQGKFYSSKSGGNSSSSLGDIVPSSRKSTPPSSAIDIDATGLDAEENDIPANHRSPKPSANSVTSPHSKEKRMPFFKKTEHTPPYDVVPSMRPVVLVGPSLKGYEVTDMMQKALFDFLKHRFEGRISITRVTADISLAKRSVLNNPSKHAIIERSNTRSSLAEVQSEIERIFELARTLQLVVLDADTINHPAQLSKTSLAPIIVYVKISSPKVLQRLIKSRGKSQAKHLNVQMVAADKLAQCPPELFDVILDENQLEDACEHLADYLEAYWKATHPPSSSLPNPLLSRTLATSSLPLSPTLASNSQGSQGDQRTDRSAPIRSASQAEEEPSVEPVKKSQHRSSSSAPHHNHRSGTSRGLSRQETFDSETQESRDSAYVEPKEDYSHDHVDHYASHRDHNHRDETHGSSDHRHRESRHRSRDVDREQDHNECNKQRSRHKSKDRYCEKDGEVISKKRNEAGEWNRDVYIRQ
T1 sequence (P54289 25-1103 partner): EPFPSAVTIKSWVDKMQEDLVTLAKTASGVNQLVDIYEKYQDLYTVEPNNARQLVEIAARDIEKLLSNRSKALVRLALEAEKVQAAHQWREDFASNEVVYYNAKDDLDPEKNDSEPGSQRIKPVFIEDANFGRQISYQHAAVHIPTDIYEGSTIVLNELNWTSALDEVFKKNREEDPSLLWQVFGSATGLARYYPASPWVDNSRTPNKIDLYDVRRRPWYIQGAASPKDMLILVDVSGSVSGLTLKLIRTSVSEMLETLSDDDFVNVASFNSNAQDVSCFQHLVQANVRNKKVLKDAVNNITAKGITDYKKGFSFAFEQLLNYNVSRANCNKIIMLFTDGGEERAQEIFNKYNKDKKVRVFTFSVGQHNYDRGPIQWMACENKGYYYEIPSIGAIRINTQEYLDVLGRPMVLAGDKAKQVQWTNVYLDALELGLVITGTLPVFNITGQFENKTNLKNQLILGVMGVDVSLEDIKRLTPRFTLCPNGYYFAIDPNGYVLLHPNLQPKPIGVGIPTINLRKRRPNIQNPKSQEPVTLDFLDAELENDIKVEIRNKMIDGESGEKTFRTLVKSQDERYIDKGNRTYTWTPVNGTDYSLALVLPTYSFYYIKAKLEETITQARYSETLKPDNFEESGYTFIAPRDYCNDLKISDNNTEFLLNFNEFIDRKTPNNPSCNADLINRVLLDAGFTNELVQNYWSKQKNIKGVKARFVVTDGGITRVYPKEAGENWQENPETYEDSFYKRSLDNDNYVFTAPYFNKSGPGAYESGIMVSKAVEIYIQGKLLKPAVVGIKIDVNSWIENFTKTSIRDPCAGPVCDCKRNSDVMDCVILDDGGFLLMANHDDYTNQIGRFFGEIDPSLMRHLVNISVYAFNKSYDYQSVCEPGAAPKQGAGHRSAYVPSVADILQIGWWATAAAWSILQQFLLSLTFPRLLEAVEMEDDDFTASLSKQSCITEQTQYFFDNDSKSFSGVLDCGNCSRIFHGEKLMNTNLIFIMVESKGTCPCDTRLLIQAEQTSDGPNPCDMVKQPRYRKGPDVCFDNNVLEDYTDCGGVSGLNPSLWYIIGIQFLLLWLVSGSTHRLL

With `CC(C(=O)NCc1ccc(OCc2ccccc2)cc1)N1C(=O)CCC1=O` (centres unmarked) [Compound 5, N-(4-(benzyloxy)benzyl)-2-(2,5-dioxopyrrolidin-1-yl)propanamide] the ED50 (6 Hz (44 mA) seizures; Mus musculus, ip, 0.5 h, read-out: ED50 6 Hz (44 mA)) was 201 mg/kg, the “PI (TD50/ED50) 6 Hz (44 mA)” value (6 Hz (44 mA) seizures; TD50 rotarod / ED50 6 Hz (44 mA)) was greater than 1.5 and the “% Inhibition of Control Specific Binding” value [1] was 57.1 (100) %. For the same compound, the “% Inhibition of Control Specific Binding” value [2] was 82.3 (100) %, the inhibition at 100 µM ([3]; HEK293, human recombinant HEK-293 cell, read-out: % Inhibition of Control Agonist Response) was 85% and the inhibition at 100 µM ([3]; read-out: inhibition rate of the Cav1.2 (L-type) calcium channel (text summary of binding and functional assays)) was greater than 50%. For the same compound, the TD50 at 0.5 h [4] was greater than 300 mg/kg, the ED50 (6 Hz (32 mA) seizures; Mus musculus, ip, 0.5 h, read-out: ED50 6 Hz (32 mA), mice i.p., TPE 0.5 h, 95% confidence interval in parentheses) was 45.2 mg/kg and the responders at 100 mg/kg (6 Hz (32 mA) seizures; Mus musculus, ip, 0.5 h, read-out: protection (efficacy) in the 6 Hz (32 mA) screening) was 50%. For the same compound, the “PI (TD50/ED50) 6 Hz” value (6 Hz (32 mA) seizures; TD50 rotarod / ED50 6 Hz (32 mA)) was greater than 6.6, the “ED50 6 Hz (32 mA)” value (6 Hz (32 mA) seizures; mice i.p., TPE 0.5 h, 95% confidence interval in parentheses) was 45.19 (37.31–54.73) mg/kg and the melting point was 102.9 to 103.4 °C. It also gave a responders at 100 mg/kg ([5]; Mus musculus, ip, mice i.p., 100 mg/kg, 0.5 h, four mice, read-out: protection (efficacy) in the MES screening) of 100%, an ED50 ([5]; Mus musculus, ip, mice i.p., TPE 0.5 h, 95% confidence interval in parentheses) of 48 mg/kg and a responders at 100 mg/kg ([5]; Mus musculus, ip, mice i.p., dose of 100 mg/kg, pretreatment time 0.5 h, read-out: MES test: number of mice protected / number of mice tested (converted)) of 100%. For the same compound, the “PI (TD50/ED50) MES” value ([5]; TD50 rotarod / ED50 MES) was greater than 6.3 and the “% Inhibition of Control Specific Binding” value (Na+ channel (site 2)) was 38.2 (100) %.
